By IC50 is commonly meant the point on the concentration scale where inhibition reaches its midpoint. A lower IC50 goes with greater potency in that assay.

Here are results for 16 compounds from PMC8304462, “Isolation, Structural Characterization and Antidiabetic Activity of New Diketopiperazine Alkaloids from Mangrove Endophytic Fungus Aspergillus sp. 16-5c” (Marine Drugs, 2021).

For assay [1], the target named is α-glucosidase. Nature of the assay: α-glucosidase inhibition assay (p-NPG, 96-well microplate). Type of assay: biochemical. As to conditions: 37 °C, pH 6.86, substrate p-NPG. The method, then:
The α-glucosidase inhibition assay was performed in a 96-well microplate reader method as described in a previous report. The α-glucosidase assay was performed at 37 °C with a final volume of 200 μL. […] 20 μL substrate p-nitrophenyl-α-D-glucopyranoside (p-NPG) was added to each well to start the reaction. The reaction was incubated at 37 °C for 15 min and stopped by the addition of 50 μL 0.4 M Na2CO3.

The target in assay [2] is T1, PTP1B (Homo sapiens, UniProt P18031).
T1 sequence (P18031 1-435): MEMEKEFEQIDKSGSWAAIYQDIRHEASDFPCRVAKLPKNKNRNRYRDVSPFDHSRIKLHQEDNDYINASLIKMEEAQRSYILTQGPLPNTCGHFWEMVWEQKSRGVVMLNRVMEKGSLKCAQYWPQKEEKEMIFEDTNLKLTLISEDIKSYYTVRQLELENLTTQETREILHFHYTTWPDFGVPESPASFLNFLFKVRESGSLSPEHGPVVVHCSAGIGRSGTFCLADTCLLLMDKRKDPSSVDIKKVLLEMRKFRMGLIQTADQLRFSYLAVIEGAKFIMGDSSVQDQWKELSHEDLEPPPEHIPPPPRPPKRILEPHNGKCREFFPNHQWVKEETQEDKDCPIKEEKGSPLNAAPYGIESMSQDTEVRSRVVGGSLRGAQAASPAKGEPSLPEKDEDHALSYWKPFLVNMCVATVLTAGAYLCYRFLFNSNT
The experiment in a line: PTP1B inhibitory activity (p-NPP hydrolysis). Type of assay: biochemical. As to conditions: screening concentration 100 μg/mL. Here is the method: PTP1B inhibitory activity was determined by measuring the enzymatic hydrolysis rate of p-nitrophenyl phosphate (p-NPP) as reported in the study. This assay was performed at 37 °C with a final volume of 100 μL, using a Tris-HCl buffer (25 mM Tris-HCl, 1 mM EDTA, 1 mM DTT, pH 7.5). […] After 30 min, the reaction ended by adding 50 μL 2.5 M NaOH solution.

SMILES strings stand for the structures.

Consider `C=CC(C)(C)c1[nH]c2ccccc2c1/C=C1\NC(=O)C2(O)CCCN2C1=O` (centres unmarked) [Compound 7, brevianamide Q], for which the IC50 in assay [1] amounted to 198 µM. Besides, the “PTP1B (Inhibition Ratio/%)” value in assay [2] is recorded as less than 10%.
Regarding `C=CC(C)(C)c1[nH]c2ccccc2c1CC1NC(=O)C2CCCN2C1=O` (stereo not drawn) [Compound 13, epi-deoxybrevianamide E], the IC50 in assay [1] was 480 µM. Further, in assay [2], the “PTP1B (Inhibition Ratio/%)” value is reported as less than 10%.
`O=C1NC(O)c2nc3ccccc3c(=O)n2C1Cc1ccc(O)cc1` (centres unmarked) [Compound 6, aspergiamide F] displayed an IC50 in assay [1] of 267 µM. Besides, the “PTP1B (Inhibition Ratio/%)” value in assay [2] is listed as less than 10%.
In assay [1], `O=C1N[C@@H](Cc2c[nH]c3ccccc23)C(=O)N2CCC[C@@H]12` [Compound 12, brevianamide F] came in with an IC50 of 1090 µM. Besides, the “PTP1B (Inhibition Ratio/%)” value in assay [2] is given as less than 10%.
In turn, `C=CC(C)(C)c1[nH]c2ccccc2c1C(OC)C1NC(=O)C2CCCN2C1=O` (centres unmarked) [Compound 5, aspergiamide E] showed an IC50 in assay [1] of 1090 µM. In addition, in assay [2], the “PTP1B (Inhibition Ratio/%)” value is given as less than 10%.
On the same counts, the results for `O=C1N[C@@H](O)c2nc3ccccc3c(=O)n2[C@H]1Cc1ccccc1` [Compound 15, brevianamide M] are 67.8 µM and less than 10%.
In turn, `C=CC(C)(C)c1[nH]c2ccccc2c1C=C1NC(=O)C2CC(O)CN2C1=O` (centres unmarked) [Compound 3, aspergiamide C] registered an IC50 in assay [1] of 83.9 µM. Further, the “PTP1B (Inhibition Ratio/%)” value in assay [2] is on record as less than 10%.
On the same counts, the results for `CC(C)=CCn1cc(CC2NC(=O)C3CCCN3C2=O)c2ccccc21` [Compound 11, N-Prenyl-cyclo-L-tryptophyl-L-proline] are 37.5 µM and less than 10%.
On the same counts, the results for `C=CC(C)(C)c1[nH]c2ccccc2c1/C=C1\NC(=O)C2(OC)CCCN2C1=O` (centres unmarked) [Compound 8, brevianamide R] are 364 µM and less than 10%.
On to `C=CC(C)(C)c1[nH]c2ccccc2c1C(O)C1NC(=O)C2CCCN2C1=O` (centres unmarked) [Compound 4, aspergiamide D], for which the IC50 in assay [1] came to 144 µM. For the same compound, the “PTP1B (Inhibition Ratio/%)” value in assay [2] is less than 10%.
Compound `O=C1NC(=O)[C@H](Cc2ccccc2)n2c1nc1ccccc1c2=O` [Compound 16, brevianamide N] displayed a concentration for half-maximal inhibition (IC50) in assay [1] of 363 µM. Also, the “PTP1B (Inhibition Ratio/%)” value in assay [2] is listed as less than 10%.
The corresponding values for `C=CC(C)(C)c1[nH]c2ccccc2c1/C=c1\[nH]c(=O)c2n(c1=O)CCC=2` [Compound 9, brevianamide K] are 7.6 µM and less than 10%.
On the same counts, the results for `C=CC(C)(C)c1[nH]c2ccccc2c1C=C1NC(=O)C(CCC(=O)O)NC1=O` (centres unmarked) [Compound 2, aspergiamide B] are 131 µM and less than 10%.
`O=C1N[C@@H](Cc2c[nH]c3ccccc23)C(=O)N[C@H]1Cc1ccccc1` [Compound 14, cyclo-(tryptophyl-phenylalanyl)] registered an IC50 in assay [1] of 353 µM. Also, in assay [2], the “PTP1B (Inhibition Ratio/%)” value is less than 10%.
For `C=CC(C)(C)c1[nH]c2ccccc2c1C=C1NC(=O)C(CCCO)NC1=O` (centres unmarked) [Compound 1, aspergiamide A], in assay [1], inhibition was half-maximal at 18.2 µM (IC50). Besides, the “PTP1B (Inhibition Ratio/%)” value in assay [2] is 29%.
Regarding `C=CC(C)(C)c1[nH]c2ccccc2c1/C=C1\NC(=O)C2CCCN2C1=O` (centres unmarked) [Compound 10, brevianamide W], the IC50 in assay [1] is 40.7 µM. In addition, the “PTP1B (Inhibition Ratio/%)” value in assay [2] is reported as less than 10%.
